Read-outs that look alike come from different tables or passages of the source.

Usually IC50 stands for the midpoint of a concentration-inhibition curve. The EC50 is the concentration needed to bring the measured effect to its halfway point.

One test deals with IL-22. Nature of the test: Real-Time qRT-PCR gene expression in TH17 cells (IL-22). Format: cell-based, human. Further details: key: A: No change in gene expression observed relative to DMSO treated Th17 cells; B: Decreased gene expression observed relative to DMSO treated Th17 cells; C: Increased gene expression observed relative to DMSO treated Th17 cells. The settings on record: normalized to six reference genes. As to the method: (§1) Peripheral blood mononuclear cells (PBMCs) were sourced from freshly prepared leukocyte enriched plasma (buffy coat) from healthy volunteers from which PBMCs were isolated by density gradient centrifugation using Ficoll-Paque™ PLUS (GE Healthcare). Naïve CD4+ T cells were isolated using the Naïve CD4+ T cell Isolation Kit II (Miltenyi Biotec) as per manufacturer's instructions. CD4+ T cells were plated at 5×10^4 cells/well in 96 well plates pre-coated with immobilized human (h)-αCD3 antibody (eBioscience) then differentiated to TH17 cells using h-αCD28, h-αIFN-γ, h-αIL-4, h-IL-6, h-IL-23, h-IL-1β, h-TGF-β1 (eBioscience) and maintained in a cell culture incubator at 37° C. with 5% CO2 in TexMACS Medium (Miltenyi Biotec) supplemented with 1% Penicillin/Streptomycin (Lonza) over 5 days.
RNA was isolated from TH17 cells and cDNA was synthesized using the Verso cDNA kit (Thermo Scientific) as per manufacturer's instructions. IL-17A, IL-17F, IL-21, IL-22, G-CSF, IL-23R and FOXP3 gene expression were determined for compound treated and untreated TH17 cell samples using Solaris qPCR Gene expression assays (Thermo Scientific) with an iCycler iQ Real-Time PCR Detection System (Bio-Rad). Individual gene expression was normalized to a panel of six reference genes (ACTB, TBP, HPRT1, PGK1, TFRC and PPIA) (Thermo Scientific) and analyzed by REST 2009 (Qiagen) in accordance to MIQE guidelines (Bustin et al. (2009) Clin. Chem, 55:611-622). The effects of compounds on TH17 cytokine gene expression are presented as fold change in mRNA levels of compound treated TH17 cells relative to DMSO treated cells in the table below.

Another test concerns IL-17A. In words: TH17 cytokine inhibition measured by ELISA (IL-17A). Conditions: 120 h; human TH17 cells, 5 days differentiation, ELISA of supernatants, 0.1% DMSO. Format: cell-based. As to the method:
as §1
Human CD4+ T cells were differentiated to TH17 cells as described in the presence or absence of various concentrations of compounds in a final concentration of 0.1% DMSO in TexMACS medium. Supernatants were collected and stored at −20° C. until they were to be assayed for IL-17A, IL-17F, IL-17AF, IL-21 and/or IL-22 levels as determined by Ready-Set-Go ELISA kits (eBioscience) as per manufacturer's instructions. Endpoint absorbance was read at 450 nm and 570 nm according to manufacturer's instructions (eBioscience) using a microplate reader (Perkin Elmer). The percentage of cytokine inhibition was calculated with reference to DMSO treated cells and the IC50s were determined by GraphPad Prism software and presented in the table below.
(In general: An ELISA detects its analyte on a solid surface through an enzyme-linked reagent.)

The target in test [1] is T1, RORγ LBD (Homo sapiens, UniProt P51449).
T1 sequence (P51449 269-508 limits assumed): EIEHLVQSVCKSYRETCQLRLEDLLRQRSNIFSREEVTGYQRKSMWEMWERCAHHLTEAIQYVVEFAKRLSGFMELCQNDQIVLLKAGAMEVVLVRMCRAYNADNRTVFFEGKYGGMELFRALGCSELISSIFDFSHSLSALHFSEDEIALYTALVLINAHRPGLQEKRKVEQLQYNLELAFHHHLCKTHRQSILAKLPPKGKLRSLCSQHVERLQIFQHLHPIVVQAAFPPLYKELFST
Nature of the test: RORγ LBD binding (Human RORγ Assay System, INDIGO Biosciences). Further details: purchased INDIGO Biosciences Inc. Conditions: 0.5% DMSO. As to the method:
Compound binding to the human RORγ LBD was assessed using the Human RORγ Assay System (INDIGO Biosciences Inc.) as per manufacturer's instructions.

Another test has as its system TH17 cells. In words: TH17 cellular proliferation (Prestoblue). Format: cell-based. The settings on record: Homo sapiens, 120 h; 3 μM compound, after 5 day TH17 differentiation, relative to DMSO treated TH17 cells; read-out: % change in TH17 cell number. As to the method:
as §1
Cellular proliferation was assessed in the presence or absence of 3 μM compound using Prestoblue® Cell Viability Reagent (Life Technologies) as per manufacturer's instructions using absorbance as the output measured by a microplate reader (Perkin Elmer) after 30 minutes of incubation. A standard curve developed by plotting varying cell numbers versus absorbance was used to assess differences in cellular proliferation between compound treated or untreated cells after the 5 day TH17 differentiation period.

Another test addresses T2, RORα LBD (Homo sapiens, UniProt P35398).
T2 construct: purified GST-tagged (i) RORγ LBD or (ii) RORα LBD; purchased Life Technologies
T2 sequence (P35398 272-510 limits assumed): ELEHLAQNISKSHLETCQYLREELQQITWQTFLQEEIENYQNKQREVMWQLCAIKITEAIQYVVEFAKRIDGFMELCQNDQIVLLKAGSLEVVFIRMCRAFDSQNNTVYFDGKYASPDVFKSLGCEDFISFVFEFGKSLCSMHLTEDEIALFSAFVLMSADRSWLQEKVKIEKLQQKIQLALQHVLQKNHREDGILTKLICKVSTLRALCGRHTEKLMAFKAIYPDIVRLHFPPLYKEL
In words: TR-FRET NCoR1-D2 co-repressor recruitment to RORα LBD. Format: biochemical. From the text:
(§2) The Time-Resolved Fluorescence Resonance Energy Transfer (TR-FRET) assay kit (Life Technologies) was used to measure compound efficacy to disrupt or enhance ligand-mediated interaction of the co-activator and co-repressor peptides with the purified GST-tagged (i) RORγ LBD or (ii) RORα LBD. The RORγ LBD and RORα LBD each have a basal level of interaction with the co-activator D22 or co-repressor NCoR1-D2 in the absence of ligand, thus it is possible to identify compounds that inhibit or induce RORγ and/or RORα co-activator/co-repressor interactions, thus determining RORα, RORγ, or RORα/RORγ compound selectivity. The assay was performed as per manufacturer's instructions and TR-FRET was assessed 2 and 20 hours post-assay initiation. Compounds were identified to (i) have no impact on either co-activator displacement or […] from the assessed LBD (ii) promote co-activator displacement from the assessed LBD (iii) promote co-repressor recruitment to the assessed LBD or (iv) concurrently promote co-activator displacement from the assessed LBD and co-repressor recruitment to the assessed LBD.
In general terms: Time-resolved FRET reads energy transfer from a long-lived donor to a nearby acceptor.

For test [2], the target named is T1, RORγ LBD. Nature of the test: TR-FRET NCoR1-D2 co-repressor recruitment to RORγ LBD. Format: biochemical. Further details: purified GST-tagged (i) RORγ LBD or (ii) RORα LBD; purchased Life Technologies.
From the text: as §2

Setting [3] is: TR-FRET assessed 2 hr post-assay initiation, read-out: RORα EC50 NCoR1-D2 co-repressor recruitment, 2 hr.
Setting [4] is: TR-FRET assessed 20 hr post-assay initiation, read-out: RORα EC50 NCoR1-D2 co-repressor recruitment, 20 hr.
Setting [5] is: TR-FRET assessed 2 hr post-assay initiation, read-out: RORγ EC50 NCoR1-D2 co-repressor recruitment, 2 hr.
[6] abbreviates: TR-FRET assessed 20 hr post-assay initiation, read-out: RORγ EC50 NCoR1-D2 co-repressor recruitment, 20 hr.

Turning to `Cc1cc(-c2ccc3c(c2)CCCN3Cc2ccc(C(O)(C(F)(F)F)C(F)(F)F)cc2)[nH]n1` [Example 1, 1,1,1,3,3,3-hexafluoro-2-(4-((6-(3-methyl-1H-pyrazol-5-yl)-3,4-dihydroquinolin-1(2H)-yl)methyl)phenyl)propan-2-ol], in the test on IL-22, the “Fold change in mRNA levels of compound treated TH17 cells relative to DMSO treated cells, IL-22” value is listed as “B”. The IC50 in the test on IL-17A was < 10 µM; at RORγ LBD [1], > 10 µM. Also, the inhibition at 3 µM in the test on TH17 cells is > 50%. Besides, the EC50 on RORα LBD (setting [3]) was < 30 µM; at RORα LBD (setting [4]) it was < 30 µM; on RORγ LBD [2] (setting [5]), > 30 µM; on RORγ LBD [2] (setting [6]), < 30 µM.
Turning to `OC(c1ccc(CN2CCCc3cc(-c4cn[nH]c4)ccc32)cc1)(C(F)(F)F)C(F)(F)F` [Example 2, 2-(4-((6-(1H-pyrazol-4-yl)-3,4-dihydroquinolin-1(2H)-yl)methyl)phenyl)-1,1,1,3,3,3-hexafluoropropan-2-ol], in the test on IL-22, the “Fold change in mRNA levels of compound treated TH17 cells relative to DMSO treated cells, IL-22” value is “B”. Besides, the IC50 with IL-17A is < 10 µM; at RORγ LBD [1], > 10 µM. In addition, the inhibition at 3 µM in the test on TH17 cells is > 50%. The EC50 on RORα LBD (setting [3]), at RORα LBD (setting [4]), on RORγ LBD [2] (setting [5]) and on RORγ LBD [2] (setting [6]) was < 30 µM throughout.
With `Cc1n[nH]c(-c2ccc3c(c2)CCCN3Cc2ccc(C(O)(C(F)(F)F)C(F)(F)F)cc2)n1` [Example 3, 1,1,1,3,3,3-hexafluoro-2-(4-((6-(3-methyl-1H-1,2,4-triazol-5-yl)-3,4-dihydroquinolin-1(2H)-yl)methyl)phenyl)propan-2-ol], the “Fold change in mRNA levels of compound treated TH17 cells relative to DMSO treated cells, IL-22” value in the test with IL-22 is “B”. Also, the IC50 is < 10 µM in the test with IL-17A and > 10 µM at RORγ LBD [1]. Moreover, the inhibition at 3 µM in the test on TH17 cells was > 50%. Also, the EC50 is > 30 µM at RORα LBD (setting [3]), < 30 µM on RORα LBD (setting [4]), > 30 µM at RORγ LBD [2] (setting [5]) and < 30 µM at RORγ LBD [2] (setting [6]).
On to `Cc1cc(-c2ccc3c(c2)CCC(=O)N3Cc2ccc(C(O)(C(F)(F)F)C(F)(F)F)cc2)[nH]n1` [Example 4, 1-(4-(1,1,1,3,3,3-hexafluoro-2-hydroxypropan-2-yl)benzyl)-6-(3-methyl-1H-pyrazol-5-yl)-3,4-dihydroquinolin-2(1H)-one], for which the “Fold change in mRNA levels of compound treated TH17 cells relative to DMSO treated cells, IL-22” value with IL-22 is “B”. The IC50 in the test with IL-17A and at RORγ LBD [1] was < 10 µM throughout. In addition, the inhibition at 3 µM in the test with TH17 cells is ≤ 50%. Further, the EC50 is > 30 µM at RORα LBD (setting [3]), < 30 µM at RORα LBD (setting [4]), > 30 µM at RORγ LBD [2] (setting [5]) and < 30 µM on RORγ LBD [2] (setting [6]).
For `O=C1CCc2cc(-c3cn[nH]c3)ccc2N1Cc1ccc(C(O)(C(F)(F)F)C(F)(F)F)cc1` [Example 5, 1-(4-(1,1,1,3,3,3-hexafluoro-2-hydroxypropan-2-yl)benzyl)-6-(1H-pyrazol-4-yl)-3,4-dihydroquinolin-2(1H)-one], in the test on IL-22, the “Fold change in mRNA levels of compound treated TH17 cells relative to DMSO treated cells, IL-22” value is given as “A”. Also, the IC50 in the test on IL-17A was < 10 µM; at RORγ LBD [1], > 10 µM. Also, the inhibition at 3 µM in the test on TH17 cells is ≤ 50%. Besides, the EC50 at RORα LBD (setting [3]) is < 30 µM; on RORα LBD (setting [4]), > 30 µM; at RORγ LBD [2] (setting [5]), > 30 µM; at RORγ LBD [2] (setting [6]), < 30 µM.
Take `Cc1n[nH]c(-c2ccc3c(c2)CCC(=O)N3Cc2ccc(C(O)(C(F)(F)F)C(F)(F)F)cc2)n1` [Example 6, 1-(4-(1,1,1,3,3,3-hexafluoro-2-hydroxypropan-2-yl)benzyl)-6-(3-methyl-1H-1,2,4-triazol-5-yl)-3,4-dihydroquinolin-2(1H)-one]: in the test on IL-22, the “Fold change in mRNA levels of compound treated TH17 cells relative to DMSO treated cells, IL-22” value is given as “B”. For the same compound, the IC50 with IL-17A is < 10 µM; at RORγ LBD [1], > 10 µM. The inhibition at 3 µM in the test with TH17 cells is ≤ 50%. Moreover, the EC50 at RORα LBD (setting [3]), on RORα LBD (setting [4]), on RORγ LBD [2] (setting [5]) and at RORγ LBD [2] (setting [6]) was > 30 µM each time.
